Calls of active or inactive are those of the source. The calls are words filed in the database; no cut-off is given here.
Experiments:
Type in all cases: functional
[1] = (§1) Cytotoxicity against human Hs 578T cells at 10 uM; details: read-out: GI
MDA-MB-468 = assay: Cytotoxicity against human MDA-MB-468 cells at 10 uM; details: read-out: GI
MCF7 = assay: Cytotoxicity against human MCF7 cells at 10 uM; details: read-out: GI
T47D = assay: Cytotoxicity against human T47D cells at 10 uM; details: read-out: GI
DU-145 = assay: Cytotoxicity against human DU145 cells at 10 uM
PC-3 = assay: Cytotoxicity against human PC3 cells at 10 uM; details: read-out: GI
A498 = assay: Cytotoxicity against human A498 cells at 10 uM
[2] = (§2) Cytotoxicity against human NCI-ADR-RES cells at 10 uM; details: read-out: GI
LOX IMVI = assay: Cytotoxicity against human LOXIMVI cells at 10 uM; details: read-out: GI
OVCAR-3 = assay: Cytotoxicity against human OVCAR3 cells at 10 uM
UACC-62 = assay: Cytotoxicity against human UACC62 cells at 10 uM
SK-MEL-2 = assay: Cytotoxicity against human SK-MEL-2 cells at 10 uM
SF-268 = assay: Cytotoxicity against human SF268 cells at 10 uM
SW-620 = assay: Cytotoxicity against human SW620 cells at 10 uM
SNB-75 = assay: Cytotoxicity against human SNB75 cells at 10 uM; details: read-out: GI
KM12 = assay: Cytotoxicity against human KM12 cells at 10 uM
HT-29 = assay: Cytotoxicity against human HT-29 cells at 10 uM
HOP-92 = assay: Cytotoxicity against human HOP92 cells at 10 uM; details: read-out: GI
NCI-H460 = assay: Cytotoxicity against human NCI-H460 cells at 10 uM
A549 = assay: Cytotoxicity against human A549 cells at 10 uM
SR = assay: Cytotoxicity against human SR cells at 10 uM
MOLT-4 = assay: Cytotoxicity against human MOLT4 cells at 10 uM; details: read-out: GI
RPMI-8226 = assay: Cytotoxicity against human RPMI8226 cells at 10 uM
Hs-578T = assay: as §1
NCI/ADR-RES = assay: as §2
K562 = assay: Cytotoxicity against human K562 cells at 10 uM; details: read-out: GI
HL-60(TB) = assay: Cytotoxicity against human HL-60(TB) cells at 10 uM; details: read-out: GI

SMILES	inhibition of growth at 10 µM (MDA-MB-468)	inhibition of growth at 10 µM (MCF7)	inhibition of growth at 10 µM (T47D)	growth inhibition (GI) (DU-145)	inhibition of growth at 10 µM (PC-3)	growth inhibition (GI) (A498)	inhibition of growth at 10 µM (LOX IMVI)	growth inhibition (GI) (SW-620)	inhibition of growth at 10 µM (SNB-75)	growth inhibition (GI) (HT-29)	inhibition of growth at 10 µM (HOP-92)	growth inhibition (GI) (NCI-H460)	inhibition of growth at 10 µM (MOLT-4)	also measured
Cc1cc(S(=O)(=O)NC(=N)Nc2ccc(S(N)(=O)=O)cc2)c(SCc2cc3c(cc2Cl)OCO3)cc1Cl	41%	4%	23%	inactive	25%	inactive	8%	inactive	22%	inactive	29%	inactive	20%	inhibition of growth at 10 µM [1]: 2%; inhibition of growth at 10 µM [2]: 1%; inhibition of growth at 10 µM (OVCAR-3; read-out: GI): 12%; inhibition of growth at 10 µM (UACC-62; read-out: GI): 17%; inhibition of growth at 10 µM (SK-MEL-2; read-out: GI): 9%; inhibition of growth at 10 µM (SF-268; read-out: GI): 5%; inhibition of growth at 10 µM (KM12; read-out: GI): 8%; inhibition of growth at 10 µM (A549; read-out: GI): 4%; inhibition of growth at 10 µM (SR; read-out: GI): 25%; inhibition of growth at 10 µM (RPMI-8226; read-out: GI): 10%
Cc1cc(S(=O)(=O)NC(=N)Nc2nnc(S(N)(=O)=O)s2)c(SCc2ccccc2)cc1Cl	11%	11%	6%	inactive	3%	inactive	4%	inactive	18%	inactive	1%	inactive	14%	growth inhibition (GI) (Hs-578T): inactive; growth inhibition (GI) (NCI/ADR-RES): inactive; growth inhibition (GI) (OVCAR-3): inactive; growth inhibition (GI) (UACC-62): inactive; growth inhibition (GI) (SK-MEL-2): inactive; growth inhibition (GI) (SF-268): inactive; growth inhibition (GI) (KM12): inactive; growth inhibition (GI) (A549): inactive; growth inhibition (GI) (SR): inactive; growth inhibition (GI) (RPMI-8226): inactive; inhibition of growth at 10 µM (K562): 2%; inhibition of growth at 10 µM (HL-60(TB)): 15%

Reference: ChEMBL document CHEMBL3102853, “Carbonic anhydrase inhibitors. Synthesis, and molecular structure of novel series N-substituted N'-(2-arylmethylthio-4-chloro-5-methylbenzenesulfonyl)guanidines and their inhibition of human cytosolic isozymes I and II and the transmembrane tumor-associated isozymes IX and XII” (Eur J Med Chem, 2014)
